Our source for the inhibition and IC50 values is ChEMBL document CHEMBL6153097, “Design, synthesis, and biological evaluation of Flavokavain B derivatives as potent TRF2 inhibitors for the treatment of Osteosarcoma” (Eur J Med Chem, 2025).

Calls of active or inactive are those of the source. The calls are words filed in the database; no cut-off is given here.

A short description of data set [1]: (§1) Inhibition of TRF2 expression in human U2OS cells at 2 uM measured after 48 hrs by Western blot analysis relative to control. It is filed as functional.
A short description of data set [2]: (§2) Inhibition of TRF2 expression in human MG-63 cells at 2 uM measured after 48 hrs by Western blot analysis relative to control. The format is functional. A general note: Immunoblotting shows a protein as a band on a membrane.
For data set [3], the system named is U2OS. Briefly: Antiproliferative activity against human U2OS cells assessed as reduction in cell viability incubated for 48 hrs by MTT assay. It is filed as functional, cell-based. Background: Tetrazolium assays rely on reduction of a dye to a coloured formazan, in cell work by metabolically active cells.
Data set [4] relates to MG-63. Briefly: Antiproliferative activity against human MG-63 cells assessed as reduction in cell viability incubated for 48 hrs by MTT assay. Conditions: MG-63, 48 h. It is filed as functional, cell-based.
The nature of data set [5]: Cytotoxicity against […] MLO-Y4 cells assessed as cell viability incubated for 48 hrs by MTT assay. It is filed as toxicity, cell-based. Conditions: mouse.
The test system of data set [6] is MG-63. The description is as §2. The format is functional.
The test system of data set [7] is U2OS. The description is as §1. The format is functional.

In general, inhibition refers to the drop in the measured response relative to a control, in per cent. Turning to `COc1cc(O)c(C(=O)/C=C/c2cc(Cl)ccn2)c(OC)c1`, the inhibition at 2 µM in data set [1] was 32.9%; in data set [2], 41.3%.
Broadly, the IC50 is the concentration that inhibits the measured activity by half. With `COc1ccc(CNC(=O)Nc2ncc([N+](=O)[O-])s2)cc1`, the values for the inhibition at 2 µM in data set [1] and in data set [2] were 9.2% and 14.6%, respectively. Besides, the IC50 in the data set with U2OS [3] is 32.8 µM; in the data set on MG-63 [4] it was 37.8 µM. In addition, the IC50 at 48 h in data set [5] was over 100 µM.
In data set [1], `CCOC(=O)COc1ccc(C(=O)/C=C/c2cccc(Br)c2)c(OC)c1` yielded an inhibition at 2 µM of 37.3%. Besides, the inhibition entry with MG-63 [6] was “inactive”.
For `COc1cc(OCC(=O)O)ccc1C(=O)/C=C/c1cccc(Br)c1`, the inhibition at 2 µM in data set [1] was found to be 52.5%. In the data set with MG-63 [6], the inhibition entry is “inactive”.
Turning to `COc1cc(O)c(C(=O)CCc2cccc(Br)c2)c(OC)c1`, the inhibition at 2 µM in data set [1] was determined as 34.5%; in data set [2], 32.8%.
As for `COc1ccc(C(=O)/C=C/c2cccc(Br)c2)c(O)c1`, the inhibition at 2 µM in data set [1] stood at 51.7%; in data set [2] it was 44.8%. Besides, the IC50 was found to be 7.87 µM in the data set on U2OS [3] and 7.11 µM in the data set with MG-63 [4]. Also, the IC50 at 48 h in data set [5] turned out to be 7.93 µM.
For the compound `COc1ccc(C(=O)/C=C/c2cc(Br)cc(Br)c2)c(OC)c1`, the inhibition at 2 µM turned out to be 22.5% in data set [1] and 52.5% in data set [2].
As to `COc1cc(OC2CCCOC2)ccc1C(=O)/C=C/c1cccc(Br)c1` (stereo not given), the inhibition at 2 µM stood at 31.8% in data set [1] and 23.7% in data set [2].
Take `COc1cc(N2CCOCC2)ccc1C(=O)/C=C/c1cc(Br)cc(Br)c1`: the inhibition at 2 µM came to 33.2% in data set [1] and 40.2% in data set [2].
With `COc1cc(O)ccc1C(=O)/C=C/c1cc(Br)cc(Br)c1`, the figures for the inhibition at 2 µM in data set [1] and in data set [2] were 42.1% and 22.2%, respectively.
In data set [1], `CCOC(=O)COc1ccc(C(=O)/C=C/c2cc(Br)cc(Br)c2)c(OC)c1` had an inhibition at 2 µM of 39.2%. In the data set with MG-63 [6], the inhibition entry is “inactive”.
Regarding `CCOc1ccc(C(=O)/C=C/c2cc(Br)cc(Br)c2)c(OCC)c1`, the inhibition result in the data set with U2OS [7] was “inactive”. The compound also had an inhibition at 2 µM in data set [2] of 17.1%.
In the case of `COc1cc(OC)c(C(=O)/C=C/c2cc(Br)cc(Br)c2)c(OC)c1`, the inhibition at 2 µM stood at 31.1% in data set [1] and 31.4% in data set [2].
On the same counts, the results for `O=C(/C=C/c1cc(Br)cc(Br)c1)c1ccc2c(c1)OCCO2` are 36.7% and 37.6%.
Regarding `COc1cc(O)c(C(=O)/C=C/c2cc(Br)cc(Br)c2)c(OC)c1`, the figures for the inhibition at 2 µM in data set [1] and in data set [2] were 13.8% and 22.1%, respectively.
Turning to `COc1cc(O)c(C(=O)/C=C/c2cccc(Br)c2)c(OC)c1`, the inhibition at 2 µM in data set [1] turned out to be 18.3%; in data set [2], 37.8%. Moreover, the IC50 was 8.75 µM in the data set on U2OS [3] and 4.34 µM with MG-63 [4]. For the same compound, the IC50 at 48 h in data set [5] stood at 19.6 µM.
`COc1ccc(C(=O)/C=C/c2cccc(Br)c2)c(OC)c1`: the figures for the inhibition at 2 µM in data set [1] and in data set [2] were 45.4% and 29.6%, respectively.
As for `COc1cccc(O)c1C(=O)/C=C/c1cccc(Br)c1`, the inhibition at 2 µM in data set [1] is 35%; in data set [2] it was 40.6%.
In the same order, the values of `COc1cc(OC)c2c(=O)cc(-c3cccc(Br)c3)oc2c1` are 33.7% and 23.8%.
Regarding `O=C(/C=C/c1cccc(Br)c1)c1ccc2c(c1)OCCO2`, the inhibition at 2 µM in data set [1] was 39.5%; in data set [2], 48.5%. The IC50 in the data set on U2OS [3] was found to be 13.2 µM; in the data set with MG-63 [4], 6.81 µM. The IC50 at 48 h in data set [5] was found to be 76.5 µM.
In the same order, the values of `COc1cc(OCC(=O)O)ccc1C(=O)/C=C/c1cc(Br)cc(Br)c1` are 52%, 34.8%, 32.9 µM, 22.8 µM and over 100 µM.
The compound `COc1cc(O)ccc1C(=O)/C=C/c1cccc(Br)c1` registered an inhibition at 2 µM in data set [1] of 9.3%. The inhibition entry with MG-63 [6] is “inactive”.
In the case of `CCOc1ccc(C(=O)/C=C/c2cccc(Br)c2)c(OCC)c1`, the inhibition entry with U2OS [7] is “inactive”. The compound further had an inhibition at 2 µM in data set [2] of 36.1%.
On the same counts, the results for `COc1cc(OC2CCCOC2)ccc1C(=O)/C=C/c1cc(Br)cc(Br)c1` (stereo not given) are “inactive” and 32.2%.
With `COc1cc(N2CCOCC2)ccc1C(=O)/C=C/c1cccc(Br)c1`, the results for the inhibition at 2 µM in data set [1] and in data set [2] were 25.1% and 22.7%, respectively.
